ChEMBL document CHEMBL1201862, “PubChem BioAssay data set” (2004)
Activity calls are given as the source filed them.

Columns and labels:
[1] = biological target: Dual specificity tyrosine-phosphorylation-regulated kinase 1A (Rattus norvegicus, UniProt Q63470); format: biochemical, Homo sapiens
[2] = biological target: T1, Rac GTPase-activating protein 1 (Homo sapiens, UniProt Q9H0H5); assay: blockers of MgcRacGAP-driven Rac1 GTP hydrolysis – biochemical, ADP Hunter fluorescence, primary and confirmatory, confirmation (AID 624330); format: functional
T1 sequence (Q9H0H5 whole entry): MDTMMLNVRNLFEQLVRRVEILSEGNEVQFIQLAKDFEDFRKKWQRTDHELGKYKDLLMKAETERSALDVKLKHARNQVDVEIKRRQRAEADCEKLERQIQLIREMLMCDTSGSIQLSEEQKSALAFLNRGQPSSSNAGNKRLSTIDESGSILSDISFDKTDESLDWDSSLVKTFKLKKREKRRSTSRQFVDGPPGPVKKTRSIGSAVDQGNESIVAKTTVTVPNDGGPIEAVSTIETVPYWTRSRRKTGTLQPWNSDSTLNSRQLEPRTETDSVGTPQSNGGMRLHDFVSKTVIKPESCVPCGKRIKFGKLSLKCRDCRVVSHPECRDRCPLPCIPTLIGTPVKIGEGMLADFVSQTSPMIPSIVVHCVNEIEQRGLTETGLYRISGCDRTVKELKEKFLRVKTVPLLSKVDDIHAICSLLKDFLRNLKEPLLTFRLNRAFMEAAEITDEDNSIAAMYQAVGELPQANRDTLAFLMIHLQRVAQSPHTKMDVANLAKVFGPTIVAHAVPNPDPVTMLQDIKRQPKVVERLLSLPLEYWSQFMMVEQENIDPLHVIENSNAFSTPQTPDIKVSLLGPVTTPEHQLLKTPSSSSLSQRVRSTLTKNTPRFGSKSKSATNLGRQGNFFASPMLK

[3] = system: HEK293; assay: cells; format: functional, cell-based; conditions: Homo sapiens
[4] = biological target: T2, Nuclear receptor subfamily 0 group B member 1 (Homo sapiens, UniProt P51843); assay: Luminescence-based cell-based high throughput dose response assay for inhibitors of the orphan nuclear receptor subfamily 0, group B, member 1 (DAX1; NR0B1). [Related pubchem assays (depositor defined):AID504766, AID504790]; format: functional
T2 sequence (P51843 whole entry): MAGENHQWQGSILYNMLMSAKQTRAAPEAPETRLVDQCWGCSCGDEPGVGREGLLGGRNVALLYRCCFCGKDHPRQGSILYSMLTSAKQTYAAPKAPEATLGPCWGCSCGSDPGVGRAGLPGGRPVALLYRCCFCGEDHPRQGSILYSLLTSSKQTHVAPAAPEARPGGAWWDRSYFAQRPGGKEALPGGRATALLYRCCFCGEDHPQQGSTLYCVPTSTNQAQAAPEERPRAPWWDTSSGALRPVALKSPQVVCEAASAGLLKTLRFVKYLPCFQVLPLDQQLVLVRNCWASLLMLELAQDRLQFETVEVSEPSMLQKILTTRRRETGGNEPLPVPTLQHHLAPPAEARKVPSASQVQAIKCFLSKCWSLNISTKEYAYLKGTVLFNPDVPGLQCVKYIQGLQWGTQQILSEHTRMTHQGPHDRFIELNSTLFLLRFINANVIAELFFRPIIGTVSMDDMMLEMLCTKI

[5] = non-specific 3'UTR reporter inhibition in Clone20-Shn3RL – cell-based, Renilla luciferase, cherry-picked, counter-screen for Shn3 inhibitor project, dose response (AID 624133); format: functional
[6] = cAMP pathway inhibition in counterscreen cell line – TR-FRET cAMP detection, counter-screen for MC4R biased antagonist project, dose response (AID 602305); format: functional, cell-based;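 also: U2OS cells stimulated with forskolin near its EC80 as the cAMP inducer; potency is for inhibition of forskolin-stimulated cAMP signaling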
[7] = system: Escherichia coli; assay: microbe, parasite or virus in culture
[8] = reduction of Shn3 3'UTR-driven luciferase in osteoblasts – cell-based, Clone20 osteoblasts, firefly luciferase, cherry-picked, dose response (AID 624132); format: functional;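 also: firefly luciferase luminescence from reporter carrying the Shn3 3'UTR in osteoblasts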
[9] = biological target: Melanocortin receptor 4 (Homo sapiens, UniProt P32245); assay: inhibitors of MC4R cAMP signaling – cell-based, TR-FRET, biased antagonists, dose response (AID 602298); format: functional;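 also: antagonist potency against agonist-stimulated cAMP production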
[10] = loss of viability in HepG2 cells – cell-based, CellTiter-Glo, cherry-picked, cytotoxicity control for Shn3 inhibitor project, dose response (AID 624134); format: functional
[11] = biological target: Prothrombin (Bos taurus, UniProt P00735); assay: thrombin protease inhibitors – biochemical, fluorescence polarization, uHTS hits, dose response (AID 602369); format: functional
[12] = biological target: Heat shock protein HSP 90-alpha (Homo sapiens, UniProt P07900); format: functional, organism-based
[13] = biological target: 26S proteasome non-ATPase regulatory subunit 14 (Homo sapiens, UniProt O00487); assay: inhibition of proteasome subunit RPN11 – biochemical, fluorescence polarization, uHTS hits, confirmation (AID 602368); format: functional
[14] = biological target: 72 kDa type IV collagenase (Homo sapiens, UniProt P08253); assay: Dose Response validation of uHTS RPN11 inhibitor hits using a MMP-2 Fluorescence assay.; format: functional
[15] = system: Streptococcus sp. 'group A'; assay: Streptococcus pyogenes SK(-)GAS viability under kanamycin – luminescence, BacTiterGlo, confirmation, counter-screen for streptokinase expression inhibitor project, dose response (AID 1900); format: functional, organism-based
[16] = system: Streptococcus; assay: GAS UMAA2166 growth inhibition – luminescence, BacTiterGlo, counter-screen for streptokinase expression inhibitor project, dose response (AID 1915); format: functional, organism-based;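 also: potency for reduction of bacterial viability or growth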
[17] = biological target: T3, Microphthalmia-associated transcription factor (Homo sapiens, UniProt O75030); assay: reducers of TRPM1 reporter luminescence, concentration series – cell-based, SK-MEL-5, cherry-picked, set 3, MITF inhibitor project, dose response (AID 493073); format: functional;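 also: SK-MEL-5 melanoma cells with luciferase driven by the MITF target TRPM1 promoter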
T3 sequence (O75030 whole entry): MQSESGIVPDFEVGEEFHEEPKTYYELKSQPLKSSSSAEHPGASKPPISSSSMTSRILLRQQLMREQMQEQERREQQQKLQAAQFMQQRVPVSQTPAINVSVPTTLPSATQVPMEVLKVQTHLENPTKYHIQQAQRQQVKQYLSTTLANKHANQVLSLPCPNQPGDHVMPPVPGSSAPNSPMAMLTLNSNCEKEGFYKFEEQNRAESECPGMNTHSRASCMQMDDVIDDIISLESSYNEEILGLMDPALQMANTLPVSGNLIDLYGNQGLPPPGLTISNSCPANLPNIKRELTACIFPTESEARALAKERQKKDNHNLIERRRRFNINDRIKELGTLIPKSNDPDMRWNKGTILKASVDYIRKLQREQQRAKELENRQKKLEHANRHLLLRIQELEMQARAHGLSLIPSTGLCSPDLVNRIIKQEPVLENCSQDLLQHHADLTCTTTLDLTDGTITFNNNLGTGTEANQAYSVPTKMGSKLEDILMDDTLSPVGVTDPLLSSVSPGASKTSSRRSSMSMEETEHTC

[18] = system: A-375; assay: MITF: Counter assay: A375 proliferation Measured in Cell-Based System Using Plate Reader - 2084-03_Inhibitor_Dose_DryPowder_Activity. [Related pubchem assays (depositor defined):AID488944]; format: functional; conditions: Homo sapiens
[19] = viability of PTEN-deleted HCT116 cells – cell-based, HCT116 PTEN knockout, dose response (AID 1047); format: functional;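 also: HCT116 colon tumor cells with PTEN knocked out; cells exposed to compound for 60 hours before readout; potency for loss of cell viability measured by luminescence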
[20] = viability of HCT116 lacking mutant beta-catenin – cell-based, human colon tumor, dose response (AID 1045); format: functional;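 also: HCT116 colon tumor cells with beta catenin knocked out; cells exposed to compound for 60 hours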
[21] = biological target: T4, High affinity choline transporter 1 (Homo sapiens, UniProt Q9GZV3); assay: human choline transporter blockers, potency – cell-based, 5-point CRC, membrane potential dye, dose response (AID 504840); format: functional
T4 sequence (Q9GZV3 whole entry): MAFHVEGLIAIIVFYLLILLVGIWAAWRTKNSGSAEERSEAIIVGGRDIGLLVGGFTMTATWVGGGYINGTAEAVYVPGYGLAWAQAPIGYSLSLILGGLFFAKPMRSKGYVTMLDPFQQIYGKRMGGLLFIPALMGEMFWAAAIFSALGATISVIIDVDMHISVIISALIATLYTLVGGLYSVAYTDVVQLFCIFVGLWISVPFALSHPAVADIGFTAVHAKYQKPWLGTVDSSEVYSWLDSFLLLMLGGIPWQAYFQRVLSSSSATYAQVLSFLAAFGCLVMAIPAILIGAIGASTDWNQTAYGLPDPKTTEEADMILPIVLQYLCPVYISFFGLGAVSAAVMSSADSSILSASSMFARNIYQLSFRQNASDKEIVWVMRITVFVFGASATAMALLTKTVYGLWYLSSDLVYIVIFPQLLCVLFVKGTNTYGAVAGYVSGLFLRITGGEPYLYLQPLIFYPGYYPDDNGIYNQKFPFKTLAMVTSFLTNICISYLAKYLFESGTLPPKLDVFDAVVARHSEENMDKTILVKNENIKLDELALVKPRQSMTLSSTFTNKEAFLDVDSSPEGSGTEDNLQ

[22] = biological target: Protein disulfide-isomerase (Homo sapiens, UniProt P07237); assay: inhibition of PDI-driven insulin aggregation – biochemical, turbidity, absorbance, cherry-picked samples, dose response (AID 602350); format: functional
[23] = Counterscreen for activators of the function of SWI/SNF related, matrix associated, actin dependent regulator of chromatin, subfamily a, member 2 (SMARCA2, BRM): Luminescence-based cell-based high throughput dose response assay to identify non-selective compounds using the VP16 reporter assay.; format: functional
[24] = biological target: SWI/SNF-related matrix-associated actin-dependent regulator of chromatin subfamily A member 2 (Homo sapiens, UniProt P51531); assay: Luminescence-based cell-based high throughput dose response assay to identify activators of the function of SWI/SNF related, matrix associated, actin dependent regulator of chromatin, subfamily a, member 2 (SMARCA2, BRM).; format: functional
[25] = biological target: Proto-oncogene tyrosine-protein kinase receptor Ret (Homo sapiens, UniProt P07949); format: functional;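 also: measured within a kinome-wide profiling panel, RET as the panel member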
[26] = biological target: Tyrosine-protein kinase JAK2 (Homo sapiens, UniProt O60674); format: functional;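 also: JAK2 tested as one member of a kinase panel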
[27] = biological target: Mitogen-activated protein kinase kinase kinase kinase 2 (Homo sapiens, UniProt Q12851); format: functional;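 also: measured as one member of a kinome-wide kinase panel, with MAP4K2 as the panel entry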
[28] = biological target: Dual specificity mitogen-activated protein kinase kinase 1 (Homo sapiens, UniProt Q02750); assay: Navigating the Kinome. Panel member name: MAP2K1; format: functional
[29] = biological target: LIM domain kinase 1 (Homo sapiens, UniProt P53667); assay: Navigating the Kinome. Panel member name: LIMK1; format: functional
[30] = biological target: Tyrosine-protein kinase receptor TYRO3 (Homo sapiens, UniProt Q06418); format: functional;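 also: TYRO3 value obtained as one member of a kinome-wide profiling panel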
[31] = biological target: Dual specificity protein kinase CLK4 (Homo sapiens, UniProt Q9HAZ1); format: functional
[32] = biological target: Serine/threonine-protein kinase Nek2 (Homo sapiens, UniProt P51955); format: functional
[33] = biological target: Serine/threonine-protein kinase Chk1 (Homo sapiens, UniProt O14757); format: functional;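 also: measured as one member of a kinome-wide kinase profiling panel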
[34] = biological target: Ras and Rab interactor 1/Tyrosine-protein kinase ABL1 (Homo sapiens, UniProt P00519+Q13671); format: functional;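 also: biochemical TR-FRET dose-response test measuring inhibition of binding between Rin1 and Abl proteins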
[35] = biological target: Aurora kinase B (Homo sapiens, UniProt Q96GD4); format: functional
[36] = biological target: Aurora kinase A (Homo sapiens, UniProt O14965); format: functional;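 also: value from the Navigating the Kinome kinase panel profiling, panel entry STK6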
Aurora kinase A, sequence (O14965 whole entry): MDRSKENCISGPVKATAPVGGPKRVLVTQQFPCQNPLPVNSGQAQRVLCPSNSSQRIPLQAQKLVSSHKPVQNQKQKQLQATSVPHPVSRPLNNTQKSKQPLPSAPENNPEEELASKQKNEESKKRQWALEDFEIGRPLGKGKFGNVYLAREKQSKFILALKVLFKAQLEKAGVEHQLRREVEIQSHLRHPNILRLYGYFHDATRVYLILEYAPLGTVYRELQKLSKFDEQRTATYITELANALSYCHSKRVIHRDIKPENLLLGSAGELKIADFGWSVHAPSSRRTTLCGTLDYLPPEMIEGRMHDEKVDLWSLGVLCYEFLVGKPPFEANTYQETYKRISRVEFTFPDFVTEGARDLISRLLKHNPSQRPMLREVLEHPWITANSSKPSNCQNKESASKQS

Melanocortin receptor 4, sequence (P32245 whole entry): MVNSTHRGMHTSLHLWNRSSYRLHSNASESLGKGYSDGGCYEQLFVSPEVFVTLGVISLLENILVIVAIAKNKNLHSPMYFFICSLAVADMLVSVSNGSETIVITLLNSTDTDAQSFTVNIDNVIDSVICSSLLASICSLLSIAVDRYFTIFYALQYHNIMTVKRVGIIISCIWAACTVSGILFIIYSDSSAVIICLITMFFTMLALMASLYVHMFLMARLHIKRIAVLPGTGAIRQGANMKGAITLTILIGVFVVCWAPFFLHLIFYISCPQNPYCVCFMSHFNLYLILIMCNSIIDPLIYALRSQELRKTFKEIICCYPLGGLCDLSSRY
Proto-oncogene tyrosine-protein kinase receptor Ret, sequence (P07949 whole entry): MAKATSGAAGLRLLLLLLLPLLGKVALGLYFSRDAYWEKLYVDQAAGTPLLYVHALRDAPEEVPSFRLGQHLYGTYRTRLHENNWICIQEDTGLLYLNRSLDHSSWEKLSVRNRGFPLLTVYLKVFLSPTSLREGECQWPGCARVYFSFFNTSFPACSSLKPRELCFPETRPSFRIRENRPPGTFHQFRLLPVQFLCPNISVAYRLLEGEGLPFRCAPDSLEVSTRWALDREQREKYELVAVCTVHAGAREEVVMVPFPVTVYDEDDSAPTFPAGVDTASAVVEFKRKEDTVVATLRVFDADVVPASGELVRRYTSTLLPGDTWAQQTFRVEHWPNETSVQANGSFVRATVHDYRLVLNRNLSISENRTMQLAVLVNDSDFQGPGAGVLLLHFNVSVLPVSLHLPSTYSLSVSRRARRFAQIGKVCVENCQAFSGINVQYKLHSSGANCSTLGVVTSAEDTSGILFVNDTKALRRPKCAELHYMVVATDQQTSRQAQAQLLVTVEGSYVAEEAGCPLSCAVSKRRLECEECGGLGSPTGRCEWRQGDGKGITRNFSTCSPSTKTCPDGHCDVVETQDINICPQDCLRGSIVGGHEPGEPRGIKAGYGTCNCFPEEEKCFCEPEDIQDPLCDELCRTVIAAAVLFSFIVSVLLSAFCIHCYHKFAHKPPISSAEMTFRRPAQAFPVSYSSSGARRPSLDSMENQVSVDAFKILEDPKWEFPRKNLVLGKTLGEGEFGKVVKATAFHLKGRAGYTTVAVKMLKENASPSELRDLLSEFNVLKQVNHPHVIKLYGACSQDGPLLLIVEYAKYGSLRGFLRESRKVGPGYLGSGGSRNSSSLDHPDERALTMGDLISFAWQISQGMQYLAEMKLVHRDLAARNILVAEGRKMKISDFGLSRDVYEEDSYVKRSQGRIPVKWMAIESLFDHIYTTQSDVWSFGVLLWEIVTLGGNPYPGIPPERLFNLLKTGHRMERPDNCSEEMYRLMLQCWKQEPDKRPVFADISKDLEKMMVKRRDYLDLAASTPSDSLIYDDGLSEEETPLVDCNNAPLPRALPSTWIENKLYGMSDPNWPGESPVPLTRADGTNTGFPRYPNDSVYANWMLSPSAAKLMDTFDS
SWI/SNF-related matrix-associated actin-dependent regulator of chromatin subfamily A member 2, sequence (P51531 whole entry): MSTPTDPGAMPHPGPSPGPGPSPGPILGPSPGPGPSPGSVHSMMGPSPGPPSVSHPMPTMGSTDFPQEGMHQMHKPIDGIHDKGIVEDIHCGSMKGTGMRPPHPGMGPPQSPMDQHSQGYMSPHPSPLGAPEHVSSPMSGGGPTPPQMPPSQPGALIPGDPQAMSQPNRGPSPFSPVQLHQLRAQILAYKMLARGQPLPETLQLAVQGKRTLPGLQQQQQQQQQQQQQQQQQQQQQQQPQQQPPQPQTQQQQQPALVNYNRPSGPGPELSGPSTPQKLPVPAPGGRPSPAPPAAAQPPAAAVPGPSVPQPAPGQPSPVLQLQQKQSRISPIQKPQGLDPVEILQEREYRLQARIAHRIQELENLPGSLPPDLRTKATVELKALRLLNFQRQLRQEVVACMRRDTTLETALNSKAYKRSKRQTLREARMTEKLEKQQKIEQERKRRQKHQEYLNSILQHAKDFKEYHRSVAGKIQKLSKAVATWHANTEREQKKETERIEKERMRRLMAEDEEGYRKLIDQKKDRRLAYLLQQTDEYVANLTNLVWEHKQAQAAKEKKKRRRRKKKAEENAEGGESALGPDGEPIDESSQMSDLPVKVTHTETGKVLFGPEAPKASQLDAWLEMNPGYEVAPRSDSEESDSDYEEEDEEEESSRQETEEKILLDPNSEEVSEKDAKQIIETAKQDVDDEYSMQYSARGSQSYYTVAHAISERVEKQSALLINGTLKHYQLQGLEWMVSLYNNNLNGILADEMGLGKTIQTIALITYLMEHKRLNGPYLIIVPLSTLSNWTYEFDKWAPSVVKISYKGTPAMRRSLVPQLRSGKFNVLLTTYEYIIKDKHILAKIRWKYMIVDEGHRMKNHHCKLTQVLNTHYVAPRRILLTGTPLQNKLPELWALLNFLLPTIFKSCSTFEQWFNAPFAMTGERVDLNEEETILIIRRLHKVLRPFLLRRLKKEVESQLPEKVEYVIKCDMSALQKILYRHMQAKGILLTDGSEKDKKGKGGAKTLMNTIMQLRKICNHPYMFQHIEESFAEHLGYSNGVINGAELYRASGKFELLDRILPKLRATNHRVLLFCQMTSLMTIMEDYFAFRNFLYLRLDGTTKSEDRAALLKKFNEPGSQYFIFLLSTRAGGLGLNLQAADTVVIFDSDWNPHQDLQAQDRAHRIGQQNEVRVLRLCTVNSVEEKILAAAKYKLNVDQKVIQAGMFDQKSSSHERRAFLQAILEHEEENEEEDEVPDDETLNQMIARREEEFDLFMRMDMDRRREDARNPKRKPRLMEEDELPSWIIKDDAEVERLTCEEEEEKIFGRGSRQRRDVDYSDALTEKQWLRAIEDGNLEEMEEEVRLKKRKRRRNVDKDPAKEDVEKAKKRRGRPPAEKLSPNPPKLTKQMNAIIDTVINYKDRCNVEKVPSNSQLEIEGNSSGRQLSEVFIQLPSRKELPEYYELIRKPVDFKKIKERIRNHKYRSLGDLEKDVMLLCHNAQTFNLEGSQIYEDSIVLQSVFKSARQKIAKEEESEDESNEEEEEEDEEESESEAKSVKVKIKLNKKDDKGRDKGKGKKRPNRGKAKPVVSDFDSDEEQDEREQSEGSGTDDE
26S proteasome non-ATPase regulatory subunit 14, sequence (O00487 whole entry): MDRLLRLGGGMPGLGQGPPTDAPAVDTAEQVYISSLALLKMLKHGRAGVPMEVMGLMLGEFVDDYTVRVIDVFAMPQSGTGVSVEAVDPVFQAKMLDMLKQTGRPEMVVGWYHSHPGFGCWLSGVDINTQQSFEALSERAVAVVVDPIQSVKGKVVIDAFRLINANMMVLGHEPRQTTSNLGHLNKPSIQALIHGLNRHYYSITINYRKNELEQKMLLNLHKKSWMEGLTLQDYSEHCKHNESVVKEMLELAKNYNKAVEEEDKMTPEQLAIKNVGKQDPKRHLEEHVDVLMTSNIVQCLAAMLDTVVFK
Tyrosine-protein kinase receptor TYRO3, sequence (Q06418 whole entry): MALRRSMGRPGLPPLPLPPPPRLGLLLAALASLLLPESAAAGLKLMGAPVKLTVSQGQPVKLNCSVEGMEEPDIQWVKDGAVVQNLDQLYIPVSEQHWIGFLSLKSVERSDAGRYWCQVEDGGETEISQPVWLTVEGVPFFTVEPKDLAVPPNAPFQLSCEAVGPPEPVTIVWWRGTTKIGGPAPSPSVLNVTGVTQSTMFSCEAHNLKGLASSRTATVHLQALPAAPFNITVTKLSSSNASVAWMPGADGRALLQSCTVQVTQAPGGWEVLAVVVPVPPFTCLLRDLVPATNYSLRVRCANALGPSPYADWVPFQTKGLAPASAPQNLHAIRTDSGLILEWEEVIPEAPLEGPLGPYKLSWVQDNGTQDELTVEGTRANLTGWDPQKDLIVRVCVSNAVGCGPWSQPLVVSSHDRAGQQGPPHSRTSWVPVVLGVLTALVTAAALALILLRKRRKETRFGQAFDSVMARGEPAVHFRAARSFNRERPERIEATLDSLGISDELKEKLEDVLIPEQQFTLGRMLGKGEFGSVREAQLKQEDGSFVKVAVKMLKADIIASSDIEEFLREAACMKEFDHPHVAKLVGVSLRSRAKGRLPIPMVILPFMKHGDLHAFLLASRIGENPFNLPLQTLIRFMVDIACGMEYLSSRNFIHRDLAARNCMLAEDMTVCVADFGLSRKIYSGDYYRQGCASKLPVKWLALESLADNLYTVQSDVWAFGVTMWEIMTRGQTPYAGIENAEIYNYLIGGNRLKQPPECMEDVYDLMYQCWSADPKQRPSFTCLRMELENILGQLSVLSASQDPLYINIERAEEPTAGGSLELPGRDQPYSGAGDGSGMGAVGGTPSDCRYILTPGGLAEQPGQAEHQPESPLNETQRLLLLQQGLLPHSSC
Aurora kinase B, sequence (Q96GD4 whole entry): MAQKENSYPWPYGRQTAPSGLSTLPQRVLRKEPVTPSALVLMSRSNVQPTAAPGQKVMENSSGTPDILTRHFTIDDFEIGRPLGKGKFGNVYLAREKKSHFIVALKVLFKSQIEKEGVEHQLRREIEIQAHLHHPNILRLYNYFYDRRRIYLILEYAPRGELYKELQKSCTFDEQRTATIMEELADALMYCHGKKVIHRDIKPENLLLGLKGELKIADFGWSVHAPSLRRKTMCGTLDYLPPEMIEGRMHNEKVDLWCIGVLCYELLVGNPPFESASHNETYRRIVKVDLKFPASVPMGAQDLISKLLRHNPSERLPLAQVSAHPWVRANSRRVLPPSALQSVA

SMILES: COc1ccc(-c2cnnc(N/N=C/c3ccc(O)c(O)c3)n2)cc1
- AC50 [1]: 0.482 µM (active)
- IC50 [2]: 63.9 µM (active)

SMILES: Cc1cc(Cl)ccc1Nc1ncccc1C(N)=O
- IC50 [3]: > 67.5 µM (inactive)
- IC50 [4]: > 67.5 µM (inactive)

SMILES: CCCCCCCN(c1ccccc1)[C@@H]1C[C@H]2CCCC(=O)N3CC[C@@H](C1)[C@@H]23
- AC50 [5]: 4.54 µM (active)
- IC50 [6]: 22.6 µM (inactive)
- AC50 [7]: 13.7 µM (active)
- AC50 [8]: 11.4 µM (active)
- IC50 [9]: 7.91 µM (active)
- AC50 [10]: 46.4 µM (active)

SMILES: O=C(NN1C(=O)/C(=C\c2ccc(O)c([N+](=O)[O-])c2)SC1=S)c1ccccc1Cl
- AC50 [1]: 3.01 µM (active)
- IC50 [11]: 62.5 µM (active)
- AC50 [12]: 5.26 µM (active)
- IC50 [13]: 26.8 µM (active)
- IC50 [14]: 31.1 µM (active)

SMILES: CC[C@H]1OC(=O)[C@H](C)[C@@H](O[C@H]2C[C@@](C)(OC)[C@@H](O)[C@H](C)O2)[C@H](C)[C@@H](O[C@@H]2O[C@H](C)C[C@H](N(C)C)[C@H]2O)[C@](C)(O)C[C@@H](C)CN(C)[C@H](C)[C@@H](O)[C@]1(C)O [AZITHROMYCIN]
- EC50 [15]: < 0.06 µM (active)
- AC50 [7]: 29.3 µM (active)
- EC50 [16]: 0.066 µM (active)

SMILES: COc1ccc(C(CCNC(C)c2ccccc2)c2ccc(F)cc2)cc1 (stereo not drawn)
- AC50 [17]: 16.6 µM (active)
- AC50 [18]: 13.8 µM (active)
- EC50 [19]: 11.2 µM (active)
- EC50 [20]: 9.11 µM (active)

SMILES: Cc1ccc(C(=O)NC2CCCC(C)C2C)cc1S(=O)(=O)N1CCCCC1 (stereo not drawn)
- IC50 [21]: 9.55 µM (active)

SMILES: O=C(c1ccco1)N1CCN(Cc2cc(=O)oc3cc(O)ccc23)CC1
- AC50 [22]: 19.5 µM (active)

SMILES: O=C(C[S+]([O-])c1ccc(C(F)(F)F)cc1[N+](=O)[O-])Oc1ccc(Cl)cc1 (stereo not drawn)
- IC50 [6]: > 64.6 µM (inactive)
- IC50 [9]: > 64.6 µM (inactive)
- EC50 [23]: > 91.2 µM (inactive)
- EC50 [24]: > 91.2 µM (inactive)

SMILES: O=C1CN=C(c2ccc(F)cc2)c2cn[nH]c2N1
- Ki [25]: 79.4 µM (active)
- Ki [26]: 100 µM (active)
- Ki [27]: 63.1 µM (active)
- Ki [28]: 79.4 µM (active)

SMILES: COc1cc(-c2ccc(=O)n(Cc3cccc(C)c3)n2)cc(OC)c1OC
- Ki [29]: 1 µM (active)
- Ki [30]: 2.51 µM (active)
- Ki [31]: 2 µM (active)
- Ki [32]: 3.16 µM (active)
- Ki [33]: 1 µM (active)

SMILES: COc1cccc(CNC(=O)CCNS(=O)(=O)c2cccc3nsnc23)c1
- IC50 [3]: > 67.5 µM (inactive)
- IC50 [4]: > 67.5 µM (inactive)

SMILES: Cc1oc2nc(SCCCC(=O)NCCO)nc(N)c2c1C
- IC50 [34]: 6.46 µM (active)

SMILES: COC(=O)N/N=C/c1cc(C)n(-c2ccccc2)c1C
- IC50 [21]: 11.5 µM (active)

SMILES: Nc1ccc(-c2csc3ccnc(N)c23)cc1
- Ki [35]: 0.2 µM (active)
- Ki [36]: 1.26 µM (active)
